Assay results from PubChem BioAssay (NCI).
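Interpolation was linear, between the two tested concentrations surrounding the appropriate level; five concentrations were tested over 48 hours in 96-well plates. TGI: total growth inhibition.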

Legend:
Experiment in all cases: growth of human tumour cells (NCI), 48 h
[1] = test system: UACC-257 melanoma
[2] = test system: OVCAR-4 ovarian
[3] = test system: SK-MEL-5 melanoma
[4] = test system: SW-620 colon
[5] = test system: COLO 205 colon
[6] = test system: CCRF-CEM leukemia
[7] = test system: NCI-H522 lung
[8] = test system: LOX IMVI melanoma
[9] = test system: RPMI-8226 leukemia
[10] = test system: SR leukemia
[11] = test system: K-562 leukemia
[12] = test system: SNB-19 CNS
[13] = test system: A549 NSCLC
[14] = test system: SF-295 CNS
[15] = test system: OVCAR-3 ovarian
[16] = test system: ACHN renal
[17] = test system: SF-539 CNS
[18] = test system: MOLT-4 leukemia
[19] = test system: HCT-15 colon
[20] = test system: IGROV1 ovarian
[21] = test system: MALME-3M melanoma
[22] = test system: NCI-H460 lung
[23] = test system: TK-10 renal
[24] = test system: LXFL 529 NSCLC
[25] = test system: SN12C renal
[26] = test system: DLD-1 colon
[27] = test system: SK-MEL-2 melanoma
[28] = test system: SF-268 CNS
[29] = test system: HT29 colon
[30] = test system: HOP-18 NSCLC
[31] = test system: OVCAR-8 ovarian
[32] = test system: EKVX NSCLC
[33] = test system: HOP-62 NSCLC
[34] = test system: SK-MEL-28 melanoma
[35] = test system: M14 melanoma
[36] = test system: SNB-75 CNS
[37] = test system: KM12 colon
[38] = test system: U251 CNS
[39] = test system: UO-31 renal
[40] = test system: A498 renal
[41] = test system: NCI-H226 lung
[42] = test system: HCC-2998 colon
[43] = test system: SK-OV-3 ovarian
[44] = test system: OVCAR-5 ovarian
[45] = test system: DMS 114 small cell lung
[46] = test system: NCI-H23 lung
[47] = test system: M19-MEL melanoma
[48] = test system: 786-0 renal
[49] = test system: SNB-78 CNS
[50] = test system: HOP-92 NSCLC
[51] = test system: DMS 273 small cell lung
[52] = test system: HL-60(TB) leukemia
[53] = test system: UACC-62 melanoma
[54] = test system: HCT-116 colon
[55] = test system: CAKI-1 renal
[56] = test system: BT-549 breast
[57] = test system: MDA-N
[58] = test system: MDA-MB-435
[59] = test system: NCI/ADR-RES ovarian
[60] = test system: MCF7 breast
[61] = test system: T-47D breast
[62] = test system: PC-3 prostate
[63] = test system: HS 578T breast
[64] = test system: DU-145 prostate
[65] = test system: RXF 393 renal
[66] = test system: MDA-MB-231 breast

COC(CC1(OC)OC(=O)C=C1N)OC (stereo not drawn)
TGI [1]: > 100 µM
TGI [2]: > 100 µM
TGI [3]: > 100 µM
TGI [4]: > 100 µM
TGI [5]: > 100 µM
TGI [6]: > 100 µM
TGI [7]: > 100 µM
TGI [8]: > 100 µM
TGI [9]: > 100 µM
TGI [10]: > 100 µM
TGI [11]: > 100 µM
TGI [12]: > 100 µM
TGI [13]: > 100 µM
TGI [14]: > 100 µM
TGI [15]: > 100 µM
TGI [16]: > 100 µM
TGI [17]: > 100 µM
TGI [18]: > 100 µM
TGI [19]: > 100 µM
TGI [20]: > 100 µM
TGI [21]: > 100 µM
TGI [22]: > 100 µM
TGI [23]: > 100 µM
TGI [24]: > 100 µM
TGI [25]: > 100 µM
TGI [26]: > 100 µM
TGI [27]: > 100 µM
TGI [28]: > 100 µM
TGI [29]: > 100 µM
TGI [30]: > 100 µM
TGI [31]: > 100 µM
TGI [32]: > 100 µM
TGI [33]: > 100 µM
TGI [34]: > 100 µM
TGI [35]: > 100 µM
TGI [36]: > 100 µM
TGI [37]: > 100 µM
TGI [38]: > 100 µM
TGI [39]: > 100 µM
TGI [40]: > 100 µM
TGI [41]: > 100 µM
TGI [42]: > 100 µM
TGI [43]: > 100 µM
TGI [44]: > 100 µM
TGI [45]: > 100 µM
TGI [46]: > 100 µM
TGI [47]: > 100 µM
TGI [48]: > 100 µM
TGI [49]: > 100 µM
TGI [50]: > 100 µM
TGI [51]: > 100 µM
TGI [52]: > 100 µM
TGI [53]: > 100 µM
TGI [54]: > 100 µM

CC(=O)Oc1ccc(/C=C/C(=O)OCCOC(=O)/C=C/c2ccc(OC(C)=O)c(OC(C)=O)c2)cc1OC(C)=O
TGI [1]: 22.6 µM
TGI [2]: 28.4 µM
TGI [3]: 20.1 µM
TGI [4]: 49 µM
TGI [5]: 28.2 µM
TGI [6]: 6.12 µM
TGI [7]: 17 µM
TGI [55]: 11.6 µM
TGI [8]: 16.3 µM
TGI [9]: 24.5 µM
TGI [10]: 20.7 µM
TGI [11]: > 100 µM
TGI [12]: > 77.9 µM
TGI [56]: 53 µM
TGI [13]: 50.3 µM
TGI [14]: 25.4 µM
TGI [15]: > 28.6 µM
TGI [16]: 35.8 µM
TGI [17]: 13.4 µM
TGI [18]: > 38.5 µM
TGI [57]: 23.5 µM
TGI [19]: 33.8 µM
TGI [20]: 10.7 µM
TGI [21]: 30.1 µM
TGI [58]: 28 µM
TGI [22]: 32 µM
TGI [23]: 37.2 µM
TGI [59]: 16.3 µM
TGI [25]: 69 µM
TGI [27]: 55.6 µM
TGI [28]: 56.5 µM
TGI [60]: 28.6 µM
TGI [29]: > 56.7 µM
TGI [61]: 43 µM
TGI [31]: 35 µM
TGI [32]: 45 µM
TGI [33]: 5.23 µM
TGI [34]: 29.4 µM
TGI [35]: 25.3 µM
TGI [36]: 22.5 µM
TGI [37]: 22.1 µM
TGI [38]: 22.1 µM
TGI [39]: 15.3 µM
TGI [40]: 52.5 µM
TGI [62]: 58.8 µM
TGI [41]: 41.5 µM
TGI [63]: 62.7 µM
TGI [42]: 28.6 µM
TGI [43]: 35 µM
TGI [64]: 28.6 µM
TGI [44]: > 60.1 µM
TGI [46]: 18.7 µM
TGI [48]: 22.3 µM
TGI [50]: 26.7 µM
TGI [65]: 21.3 µM
TGI [52]: > 44.6 µM
TGI [66]: 52.4 µM
TGI [53]: 16.3 µM
TGI [54]: 20.9 µM
